Reference: article PMC11822212, “High-throughput screening identifies Aurora kinase B as a critical therapeutic target for Merkel cell carcinoma” (Nature Communications, 2025)
Structures can show the parent of a compound that is named as a salt. Where two headings read alike, the source gives them in different places.

Legend:
[1] = test system: six MCC cell lines and four control cell lines; experiment: qHTS cell viability, all 10 cell lines screened; assay type: cell-based
MCC26 cells (VN-MCC) = experiment: qHTS cell viability (CellTiter-Glo, 72 h; primary and follow-up small molecule screen); assay type: cell-based, human
[2] = test system: VP-MCC cell lines (WAGA, MKL-1, MKL-2); experiment: qHTS cell viability, VP-MCC cell lines as a group (mean AUC, VP.MCC.avg); assay type: cell-based, human
HACAT cells = experiment: qHTS cell viability (CellTiter-Glo, 72 h; primary screen), control cell line; assay type: cell-based, human
UISO cells (VN-MCC) = experiment: qHTS cell viability (CellTiter-Glo, 72 h; primary and follow-up small molecule screen); assay type: cell-based, human
HEK293T cells = experiment: qHTS cell viability (CellTiter-Glo, 72 h; primary screen), control cell line; assay type: cell-based, human
MCC13 cells (VN-MCC) = experiment: qHTS cell viability (CellTiter-Glo, 72 h; primary and follow-up small molecule screen); assay type: cell-based, human
[3] = test system: MCC cell lines (WAGA, MKL-1, MKL-2, MCC13, MCC26, UISO); experiment: qHTS cell viability, all six MCC cell lines as a group (mean AUC, MCC.avg); assay type: cell-based, human
WAGA cells (VP-MCC) = experiment: qHTS cell viability (CellTiter-Glo, 72 h; primary and follow-up small molecule screen); assay type: cell-based, human
[4] = test system: control cell lines (HACAT, HEK293T, CRL-7250, NIH-3T3); experiment: qHTS cell viability, control cell lines as a group (mean AUC, Control.avg); assay type: cell-based
CRL-7250 cells = experiment: qHTS cell viability (CellTiter-Glo, 72 h; primary screen), control cell line; assay type: cell-based
MKL-2 cells (VP-MCC) = experiment: qHTS cell viability (CellTiter-Glo, 72 h; primary and follow-up small molecule screen); assay type: cell-based, human
NIH-3T3 cells = experiment: qHTS cell viability (CellTiter-Glo, 72 h; primary screen), control cell line; assay type: cell-based, mouse
MKL-1 cells (VP-MCC) = experiment: qHTS cell viability (CellTiter-Glo, 72 h; primary and follow-up small molecule screen); assay type: cell-based, human
[5] = test system: VN-MCC cell lines (MCC13, MCC26, UISO); experiment: qHTS cell viability, VN-MCC cell lines as a group (mean AUC, VN.MCC.avg); assay type: cell-based, human
[6] = NPC library, therapeutic window: Control avg AUC minus MCC avg AUC
[7] = NPC library, qHTS dose-response AUC, MCC26
[8] = NPC library, mean AUC of VP-MCC cell lines
[9] = NPC library, therapeutic window: Control avg AUC minus VP-MCC avg AUC
[10] = NPC library, qHTS dose-response AUC, HACAT control
[11] = NPC library, qHTS dose-response AUC, UISO
[12] = NPC library, qHTS dose-response AUC, HEK293T control
[13] = NPC library, qHTS dose-response AUC, MCC13
[14] = NPC library, mean AUC of six MCC cell lines
[15] = NPC library, qHTS dose-response AUC, WAGA
[16] = NPC library, mean AUC of control cell lines
[17] = NPC library, qHTS dose-response AUC, CRL7250 control
[18] = NPC library, qHTS dose-response AUC, MKL2
[19] = NPC library, qHTS dose-response AUC, NIH3T3 control
[20] = NPC library, qHTS dose-response AUC, MKL1
[21] = NPC library, mean AUC of VN-MCC cell lines
[22] = NPC library, therapeutic window: Control avg AUC minus VN-MCC avg AUC

Row | Structure (SMILES) | Control-MCC [1, 6] | MCC26_AUC (MCC26 cells (VN-MCC); [7]) | VP-MCC_Avg_AUC [2, 8] | Control-VP-MCC [2, 9] | HACAT_AUC (HACAT cells; [10]) | UISO_AUC (UISO cells (VN-MCC); [11]) | HEK293T_AUC (HEK293T cells; [12]) | MCC13_AUC (MCC13 cells (VN-MCC); [13]) | MCC_Avg_AUC [3, 14] | WAGA_AUC (WAGA cells (VP-MCC); [15]) | Control_Avg_AUC [4, 16] | CRL7250_AUC (CRL-7250 cells; [17]) | MKL2_AUC (MKL-2 cells (VP-MCC); [18]) | NIH3T3_AUC (NIH-3T3 cells; [19]) | MKL1_AUC (MKL-1 cells (VP-MCC); [20]) | VN-MCC_Avg_AUC [5, 21] | Control-VN-MCC [5, 22] | Control-MCC [1] | MCC26_AUC (MCC26 cells (VN-MCC)) | Control-VP-MCC [2] | also measured
1 | CC1=C(C)C(=O)C(CCCCC#CCCCC#CCO)=C(C)C1=O [Docebenone] | 44.0275 | 429.759 | 416.945 | 53.5349 | 486.31 | 433.913 | 450.348 | 444.208 | 426.453 | 424.745 | 470.48 | 490.119 | 406.862 | 455.144 | 419.228 | 435.96 | 34.5201 | – | – | – | MCC26_AUC (MCC26 cells (VN-MCC); area under the dose-response curve, MCC26 cells, AUC<450 = reduced viability): 429.759; HACAT_AUC (HACAT cells; area under the dose-response curve, HACAT control cells, AUC<450 = reduced viability): 486.31; UISO_AUC (UISO cells (VN-MCC); area under the dose-response curve, UISO cells, AUC<450 = reduced viability): 433.913; HEK293T_AUC (HEK293T cells; area under the dose-response curve, HEK293T control cells, AUC<450 = reduced viability): 450.348; MCC13_AUC (MCC13 cells (VN-MCC); area under the dose-response curve, MCC13 cells, AUC<450 = reduced viability): 444.208; WAGA_AUC (WAGA cells (VP-MCC); area under the dose-response curve, WAGA cells, AUC<450 = reduced viability): 424.745; CRL7250_AUC (CRL-7250 cells; area under the dose-response curve, CRL7250 control cells, AUC<450 = reduced viability): 490.119; MKL2_AUC (MKL-2 cells (VP-MCC); area under the dose-response curve, MKL-2 cells, AUC<450 = reduced viability): 406.862; NIH3T3_AUC (NIH-3T3 cells; area under the dose-response curve, NIH3T3 control cells, AUC<450 = reduced viability): 455.144; MKL1_AUC (MKL-1 cells (VP-MCC); {}): 419.228
2 | CCCCCCCCCCCC[N+](C)(C)CCOc1ccccc1 [Domiphen bromide] | – | – | – | – | – | – | – | – | – | – | – | – | – | – | – | – | – | 42.3914 | 403.074 | 75.5464 | VP-MCC_Avg_AUC [2]: 351.479; HACAT_AUC (HACAT cells): 409.601; UISO_AUC (UISO cells (VN-MCC)): 370.326; HEK293T_AUC (HEK293T cells): 413.225; MCC13_AUC (MCC13 cells (VN-MCC)): 479.965; MCC_Avg_AUC [3]: 384.634; WAGA_AUC (WAGA cells (VP-MCC)): 371.251; Control_Avg_AUC [4]: 427.025; CRL7250_AUC (CRL-7250 cells): 449.796; MKL2_AUC (MKL-2 cells (VP-MCC)): 321.555; NIH3T3_AUC (NIH-3T3 cells): 435.478; MKL1_AUC (MKL-1 cells (VP-MCC)): 361.63; Control-VN-MCC [5]: 9.236; VN-MCC_Avg_AUC [5]: 417.789
3 | CCCCOc1ccc(C(=O)CCN2CCCCC2)cc1 [Dyclonine hydrochloride] | 18.5075 | 466.065 | 410.674 | 50.9798 | 461.491 | 466.874 | 441.492 | 493.918 | 443.147 | 405.649 | 461.654 | 454.097 | 401.71 | 489.536 | 424.663 | 475.619 | -13.9648 | – | – | – | –
4 | CCOC(=O)[C@H](CCc1ccccc1)N[C@@H](C)C(=O)N1CCC[C@H]1C(=O)O [Enalapril] | 89.4069 | 507.531 | 264.734 | 212.42 | 446.912 | 518.678 | 487.46 | 506.069 | 387.746 | 302.495 | 477.153 | 492.563 | 179.263 | 481.677 | 312.443 | 510.759 | -33.606 | – | – | – | –
5 | CC(O)C(=O)O.CCOc1ccc2nc3cc(N)ccc3c(N)c2c1.O [Ethacridine lactate hydrate] | – | – | – | – | – | – | – | – | – | – | – | – | – | – | – | – | – | 43.0859 | 472.196 | 76.9894 | VP-MCC_Avg_AUC [2]: 361.054; HACAT_AUC (HACAT cells): 492.059; UISO_AUC (UISO cells (VN-MCC)): 374.889; HEK293T_AUC (HEK293T cells): 374.537; MCC13_AUC (MCC13 cells (VN-MCC)): 439.497; MCC_Avg_AUC [3]: 394.957; WAGA_AUC (WAGA cells (VP-MCC)): 335.85; Control_Avg_AUC [4]: 438.043; CRL7250_AUC (CRL-7250 cells): 429.434; MKL2_AUC (MKL-2 cells (VP-MCC)): 356.151; NIH3T3_AUC (NIH-3T3 cells): 456.142; MKL1_AUC (MKL-1 cells (VP-MCC)): 391.16; Control-VN-MCC [5]: 9.1824; VN-MCC_Avg_AUC [5]: 428.861
